Laboratory results reported in patent publication US4691024A, “New mitomycin derivatives, preparation thereof and pharmaceutical compositions containing them” (priority 1984, dated 1987).
≈ marks a conversion by molar mass, not a printed value. Counter-ions that a name gives are not always drawn. Like-named read-outs stand apart in the source and are kept apart here.

Experiments:
Type in all cases: cell-based
Bacillus subtilis 10707 = assay: Antibacterial activity, minimum growth inhibitory concentration by agar dilution method (BS)
Experimental: (§1) The various compounds of formula (I) of Examples 1-26 were tested for antibacterial activity against 6 microorganisms. […]. In this table, the following symbols are used:
BS: Bacillus subtilis 10707

[1] = system: Streptococcus faecalis ATCC 10541; assay: Antibacterial activity, minimum growth inhibitory concentration by agar dilution method (SF); details: Enterococcus faecalis
Experimental: as §1
SF: Streptococcus faecalis ATCC 10541

[2] = system: Staphylococcus aureus ATCC 6538P; assay: Antibacterial activity, minimum growth inhibitory concentration by agar dilution method (SA); details: ATCC6538P
Experimental: as §1
SA: Staphylococcus aureus ATCC 6538P

[3] = system: Klebsiella pneumoniae ATCC 10031; assay: microbe, parasite or virus in culture; details: ATCC10031, pH 7, read-out: MIC, Klebsiella pneumoniae (KP)
Description: In this table, the following symbols are used:
KP: Klebsiella pneumoniae ATCC 10031

[4] = system: Proteus vulgaris ATCC 6897; assay: Antibacterial activity, minimum growth inhibitory concentration by agar dilution method (PV)
Experimental: as §1
PV: Proteus vulgaris ATCC 6897

[5] = system: Shigella sonnei ATCC 9290; assay: Antibacterial activity, minimum growth inhibitory concentration by agar dilution method (SS)
Experimental: as §1
SS: Shigella sonnei ATCC 9290

[6] = Bacillus subtilis, 10707, pH 7, read-out: MIC, Bacillus subtilis (BS)
[7] = ATCC10541, pH 7, read-out: MIC, Streptococcus faecalis (SF)
[8] = pH 7, read-out: MIC, Staphylococcus aureus (SA)
[9] = ATCC6897, pH 7, read-out: MIC, Proteus vulgaris (PV)
[10] = ATCC9290, pH 7, read-out: MIC, Shigella sonnei (SS)

| Structure (SMILES) | MIC (Bacillus subtilis 10707; [6]) [µg/mL] | MIC [1, 7] [µg/mL] | MIC [2, 8] [µg/mL] | MIC [3] [µg/mL] | MIC [4, 9] [µg/mL] | MIC [5, 10] [µg/mL] | MIC (Bacillus subtilis 10707; Bacillus subtilis, 10707, agar dilution method, pH 7.0, read-out: MIC, Bacillus subtilis (BS)) [µg/mL] | MIC ([5]; ATCC9290, agar dilution method, pH 7.0, read-out: MIC, Shigella sonnei (SS)) [µg/mL] | MIC ([1]; ATCC10541, agar dilution method, pH 7.0, read-out: MIC, Streptococcus faecalis (SF)) [µg/mL] | MIC ([2]; agar dilution method, pH 7.0, read-out: MIC, Staphylococcus aureus (SA)) [µg/mL] | MIC ([4]; ATCC6897, agar dilution method, pH 7.0, read-out: MIC, Proteus vulgaris (PV)) [µg/mL] |
| --- | --- | --- | --- | --- | --- | --- | --- | --- | --- | --- | --- |
| CCOC(=O)CNC(=O)[C@H](CSSCCNC1=C(C)C(=O)C2=C(C1=O)[C@@H](COC(N)=O)[C@@]1(OC)[C@H]3N[C@H]3CN21)NC(=O)CC[C@H](N)C(=O)O [Compound 25, 7-N-[2-[(γ-L-Glutamyl-L-cysteinyl-ethyl-glycinat-S-yl)thio]ethyl]mitomycin C] | 0.04 (≈ 0.055 µM) | 0.63 (≈ 0.866 µM) | 0.16 (≈ 0.22 µM) | 2.5 (≈ 3.43 µM) | 10 (≈ 13.7 µM) | – | – | – | – | – | – |
| CO[C@@]12[C@H](COC(N)=O)C3=C(C(=O)C(C)=C(NCCSSCCC(N)C(=O)O)C3=O)N1C[C@@H]1N[C@@H]12 (mixture of isomers) [Compound 24, 7-N-[2-[(DL-Homocystein-S-yl)thio]ethyl]mitomycin C] | < 0.02 | 0.63 | 0.08 | 0.31 | 1.3 | 40 | – | – | – | – | – |
| CO[C@@]12[C@H](COC(N)=O)C3=C(C(=O)C(C)=C(NCCSSC[C@H](NC(C)=O)C(=O)O)C3=O)N1C[C@@H]1N[C@@H]12 [Compound 19, 7-N-[2-[(N-Acetyl-L-cystein-S-yl)thio]ethyl]mitomycin C potassium salt] | 0.08 | 1.3 | 0.63 | 0.63 | 2.5 | > 20 | – | – | – | – | – |
| CO[C@@]12[C@H](COC(N)=O)C3=C(C(=O)C(C)=C(NCCSSc4ccccc4)C3=O)N1C[C@@H]1N[C@@H]12 [Compound 1, 7-N-[2-(Phenyldithio)ethyl]mitomycin C] | < 0.01 | 0.02 (≈ 0.0398 µM) | 0.02 (≈ 0.0398 µM) | 0.31 (≈ 0.617 µM) | 1.3 (≈ 2.59 µM) | 20 (≈ 39.8 µM) | – | – | – | – | – |
| CO[C@@]12[C@H](COC(N)=O)C3=C(C(=O)C(C)=C(NCCSSc4ccc(C)cc4)C3=O)N1C[C@@H]1N[C@@H]12 [Compound 10, 7-N-[2-(4-Methylphenyldithio)ethyl]mitomycin C] | 0.02 (≈ 0.0387 µM) | 0.08 (≈ 0.155 µM) | 0.04 (≈ 0.0774 µM) | 1.3 (≈ 2.52 µM) | 2.5 (≈ 4.84 µM) | > 20 | – | – | – | – | – |
| CCOC(=O)CNC(=O)[C@H](CSSCCNC1=C(C)C(=O)C2=C(C1=O)[C@H](COC(N)=O)[C@@]1(O)[C@@H]3[C@H](CN21)N3C)NC(=O)CC[C@H](N)C(=O)O (some centres unmarked) [Compound 26] | 1.6 (≈ 2.2 µM) | 13 (≈ 17.9 µM) | 6.3 (≈ 8.66 µM) | 25 (≈ 34.3 µM) | 13 (≈ 17.9 µM) | – | – | – | – | – | – |
| CO[C@@]12[C@H](COC(N)=O)C3=C(C(=O)C(C)=C(NCCSSC[C@H](NC(=O)CC[C@H](N)C(=O)O)C(=O)NCC(=O)O)C3=O)N1C[C@@H]1N[C@@H]12 [Compound 22, 7-N-[2-[(γ-L-Glutamyl-L-cysteinylglycin-S-yl)thio]ethyl]mitomycin C potassium salt] | 0.08 | 1.3 | 0.31 | 0.63 | 2.5 | > 20 | – | – | – | – | – |
| CC1=C(NCCSSC[C@H](NC(=O)CC[C@H](N)C(=O)O)C(=O)NCC(=O)O)C(=O)C2=C(C1=O)N1C[C@H]3[C@H](N3C)[C@]1(O)[C@H]2COC(N)=O (stereo partly drawn) [Compound 23, 7-N-[2-[(γ-L-glutamyl-L-cysteinylglycin-S-yl)thio]ethyl]-mitomycin D potassium salt] | 6.3 | 6.3 | 6.3 | – | 13 | – | – | – | – | – | – |
| CO[C@@]12[C@H](COC(N)=O)C3=C(C(=O)C(C)=C(NCCSSc4ccc([N+](=O)[O-])cc4)C3=O)N1C[C@@H]1N[C@@H]12 [Compound 8, 7-N-[2-(4-Nitrophenyldithio)ethyl]mitomycin C] | 0.08 (≈ 0.146 µM) | 0.16 (≈ 0.292 µM) | 0.16 (≈ 0.292 µM) | 1.3 (≈ 2.37 µM) | 2.5 (≈ 4.57 µM) | 5 (≈ 9.13 µM) | – | – | – | – | – |
| CO[C@@]12[C@H](COC(N)=O)C3=C(C(=O)C(C)=C(NCCSSc4c(F)c(F)cc(F)c4F)C3=O)N1C[C@@H]1N[C@@H]12 [Compound 13, 7-N-[2-(2,3,5,6-Tetrafluorophenyldithio)ethyl]mitomycin C] | 0.02 (≈ 0.0348 µM) | 0.31 (≈ 0.54 µM) | 0.16 (≈ 0.278 µM) | 0.63 (≈ 1.1 µM) | 5 (≈ 8.7 µM) | 10 (≈ 17.4 µM) | – | – | – | – | – |
| CO[C@@]12[C@H](COC(N)=O)C3=C(C(=O)C(C)=C(NCCSSc4ccc(NC(C)=O)cc4)C3=O)N1C[C@H]1[C@@H]2N1C (some centres unmarked) [Compound 6, 7-N-[2-(4-Acetamidophenyldithio)ethyl]porfiromycin] | 0.08 (≈ 0.139 µM) | 0.63 (≈ 1.1 µM) | 1.3 (≈ 2.27 µM) | > 20 | – | – | – | – | – | – | – |
| CO[C@@]12[C@H](COC(N)=O)C3=C(C(=O)C(C)=C(N)C3=O)N1C[C@@H]1N[C@@H]12 [MM-C, Mitomycin C, reference compound] | – | – | – | – | – | – | 0.01 (≈ 0.0299 µM) | 1.3 (≈ 3.89 µM) | 0.04 (≈ 0.12 µM) | 0.02 (≈ 0.0598 µM) | 0.04 (≈ 0.12 µM) |
| CO[C@@]12[C@H](COC(N)=O)C3=C(C(=O)C(C)=C(NCCSSc4ccccc4N)C3=O)N1C[C@@H]1N[C@@H]12 [Compound 2, 7-N-[2-(2-Aminophenyldithio)ethyl]mitomycin C] | < 0.02 | < 0.02 | 0.04 (≈ 0.0773 µM) | 0.31 (≈ 0.599 µM) | 2.5 (≈ 4.83 µM) | 20 (≈ 38.6 µM) | – | – | – | – | – |
